Laboratory results: ChEMBL document CHEMBL4715775, “Synthesis and structure-activity relationships of 1-benzylindane derivatives as selective agonists for estrogen receptor beta” (Bioorg Med Chem, 2016)

What was measured:
Estrogen receptor beta = Estrogen receptor beta (Homo sapiens, UniProt Q92731)
Description: Agonist activity at human ERbeta receptor expressed in HEK293T cells transfected with pGL4.27-(ERE)3-Luc assessed as transcriptional activation measured after 16 hrs by Dual-Glo luciferase assay

Estrogen receptor [1] = biological target: T1, Estrogen receptor (Homo sapiens, UniProt P03372)
T1 sequence (P03372 whole entry): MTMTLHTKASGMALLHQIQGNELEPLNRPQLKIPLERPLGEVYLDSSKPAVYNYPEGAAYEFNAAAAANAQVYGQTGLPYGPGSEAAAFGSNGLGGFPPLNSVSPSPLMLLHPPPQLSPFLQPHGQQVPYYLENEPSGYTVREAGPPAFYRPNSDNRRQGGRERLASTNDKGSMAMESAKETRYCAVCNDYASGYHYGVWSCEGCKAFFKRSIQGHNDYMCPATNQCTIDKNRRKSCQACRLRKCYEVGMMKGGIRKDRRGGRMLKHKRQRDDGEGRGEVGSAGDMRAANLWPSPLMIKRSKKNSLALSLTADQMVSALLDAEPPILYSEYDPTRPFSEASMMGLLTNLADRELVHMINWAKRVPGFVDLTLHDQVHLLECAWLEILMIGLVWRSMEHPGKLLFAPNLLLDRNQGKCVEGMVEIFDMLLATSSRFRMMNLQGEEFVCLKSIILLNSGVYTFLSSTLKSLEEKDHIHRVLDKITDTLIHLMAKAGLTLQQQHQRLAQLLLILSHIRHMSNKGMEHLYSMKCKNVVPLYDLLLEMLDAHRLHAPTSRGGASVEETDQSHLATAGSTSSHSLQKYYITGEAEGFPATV
Description: Agonist activity at human ERalpha receptor expressed in HEK293T cells transfected with pGL4.27-(ERE)3-Luc assessed as transcriptional activation measured after 16 hrs by Dual-Glo luciferase assay

Estrogen receptor [2] = biological target: T1, Estrogen receptor; assay: Agonist activity at human ERalpha receptor expressed in HEK293T cells transfected with pGL4.27-(ERE)3-Luc assessed as transcriptional activation at 10 uM measured after 16 hrs by Dual-Glo luciferase assay relative to 17beta-estradiol; type: cell-based

Sequence of Estrogen receptor beta (Q92731 whole entry): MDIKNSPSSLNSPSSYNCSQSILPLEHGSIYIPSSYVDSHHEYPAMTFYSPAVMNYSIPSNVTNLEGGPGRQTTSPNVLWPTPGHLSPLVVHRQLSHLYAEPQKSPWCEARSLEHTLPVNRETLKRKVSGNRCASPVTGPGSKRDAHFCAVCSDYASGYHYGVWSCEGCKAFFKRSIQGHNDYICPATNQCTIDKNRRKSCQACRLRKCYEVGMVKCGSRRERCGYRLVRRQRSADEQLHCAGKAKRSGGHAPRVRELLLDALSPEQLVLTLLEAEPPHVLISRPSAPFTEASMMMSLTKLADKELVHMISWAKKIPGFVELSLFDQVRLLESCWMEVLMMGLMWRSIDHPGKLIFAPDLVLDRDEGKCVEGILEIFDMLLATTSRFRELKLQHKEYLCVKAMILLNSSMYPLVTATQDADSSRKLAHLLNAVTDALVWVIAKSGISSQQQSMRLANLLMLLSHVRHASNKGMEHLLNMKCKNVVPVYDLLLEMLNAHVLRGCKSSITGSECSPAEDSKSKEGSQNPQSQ

Row | EC50 (Estrogen receptor beta) [nM] | EC50 (Estrogen receptor [1]) [nM] | Activity (Estrogen receptor [2]) [%] | SMILES
1 | 0.1 | – | – | CCC(c1ccc(O)cc1)C1CCc2cc(O)ccc21 (centres undefined)
2 | 32.5 | 3090 | – | Oc1cccc(CC2CCc3cc(O)ccc32)c1 (centres undefined)
3 | 0.48 | 950 | – | Cc1cc(O)ccc1CC1(C#N)CCc2cc(O)ccc21 (centres undefined)
4 | 0.18 | 102 | – | Oc1ccc(CC2CCCc3cc(O)ccc32)cc1 (centres undefined)
5 | 0.05 | – | – | N#CC1(Cc2ccc(O)cc2Cl)CCc2cc(O)ccc21 (centres undefined)
6 | 0.36 | 116 | – | CCC1(Cc2ccc(O)cc2)CCc2cc(O)ccc21 (centres undefined)
7 | 3.05 | – | – | N#CCC1(Cc2ccc(O)cc2)CCc2cc(O)ccc21 (centres undefined)
8 | – | 169 | – | CCCC1(Cc2ccc(O)cc2)CCc2cc(O)ccc21 (centres undefined)
9 | 6.59 | – | 42 | CCCCC1(Cc2ccc(O)cc2)CCc2cc(O)ccc21 (centres undefined)
10 | 72.4 | – | – | Oc1ccc(CC2CCc3c(O)cccc32)cc1 (centres undefined)
11 | 0.15 | 256 | – | N#CC1(Cc2ccc(O)cc2F)CCc2cc(O)ccc21 (centres undefined)
12 | – | 2410 | – | N#C[C@@]1(Cc2ccc(O)cc2)CCc2cc(O)ccc21
13 | 0.91 | 1820 | – | N#CC1(Cc2ccc(O)c(F)c2)CCc2cc(O)ccc21 (centres undefined)
14 | – | 481 | – | CC1(Cc2ccc(O)cc2)CCc2cc(O)ccc21 (centres undefined)
15 | 0.15 | 123 | – | Oc1ccc(CC2CCCCc3cc(O)ccc32)cc1 (centres undefined)
16 | 10.7 | – | 2 | Cc1cc(CC2(C#N)CCc3cc(O)ccc32)ccc1O (centres undefined)
17 | 25.9 | 2110 | – | Oc1ccc(CC2CCc3ccc(O)cc32)cc1 (centres undefined)
18 | – | 3020 | – | N#C[C@]1(Cc2ccc(O)cc2)CCc2cc(O)ccc21
19 | 11.6 | – | 7 | N#CC1(Cc2ccc(O)c(Cl)c2)CCc2cc(O)ccc21 (centres undefined)
20 | – | – | 47 | Oc1ccc(CCc2ccc(O)cc2)cc1
21 | – | 2790 | – | N#CC1(Cc2ccc(O)cc2)CCc2cc(O)ccc21 (racemic)
22 | 0.23 | 185 | – | CCC(Cc1ccc(O)cc1)c1ccc(O)cc1 (centres undefined) [ISOBUTESROL]
